Drawing on patent US20240140944A1, “NOVEL NAPHTHYRIDINONE DERIVATIVE HAVING INHIBITORY ACTIVITY AGAINST ECTONUCLEOTIDE PYROPHOSPHATASE-PHOSPHODIESTERASE AND USE THEREOF” (TXINNO BIOSCIENCE INC., priority 2020, published 2024), this text covers IC50 for 16 compounds.

The structures appear in SMILES notation. Counter-ions that a name gives are not always drawn. Bounds are passed on as bounds.

For orientation: IC50 means the concentration needed to halve the response being measured.

The assay deals with T1, human recombinant ENPP1 enzymes (Homo sapiens, UniProt P22413).
T1 construct: purchased R & D systems
T1 sequence (P22413 1-925): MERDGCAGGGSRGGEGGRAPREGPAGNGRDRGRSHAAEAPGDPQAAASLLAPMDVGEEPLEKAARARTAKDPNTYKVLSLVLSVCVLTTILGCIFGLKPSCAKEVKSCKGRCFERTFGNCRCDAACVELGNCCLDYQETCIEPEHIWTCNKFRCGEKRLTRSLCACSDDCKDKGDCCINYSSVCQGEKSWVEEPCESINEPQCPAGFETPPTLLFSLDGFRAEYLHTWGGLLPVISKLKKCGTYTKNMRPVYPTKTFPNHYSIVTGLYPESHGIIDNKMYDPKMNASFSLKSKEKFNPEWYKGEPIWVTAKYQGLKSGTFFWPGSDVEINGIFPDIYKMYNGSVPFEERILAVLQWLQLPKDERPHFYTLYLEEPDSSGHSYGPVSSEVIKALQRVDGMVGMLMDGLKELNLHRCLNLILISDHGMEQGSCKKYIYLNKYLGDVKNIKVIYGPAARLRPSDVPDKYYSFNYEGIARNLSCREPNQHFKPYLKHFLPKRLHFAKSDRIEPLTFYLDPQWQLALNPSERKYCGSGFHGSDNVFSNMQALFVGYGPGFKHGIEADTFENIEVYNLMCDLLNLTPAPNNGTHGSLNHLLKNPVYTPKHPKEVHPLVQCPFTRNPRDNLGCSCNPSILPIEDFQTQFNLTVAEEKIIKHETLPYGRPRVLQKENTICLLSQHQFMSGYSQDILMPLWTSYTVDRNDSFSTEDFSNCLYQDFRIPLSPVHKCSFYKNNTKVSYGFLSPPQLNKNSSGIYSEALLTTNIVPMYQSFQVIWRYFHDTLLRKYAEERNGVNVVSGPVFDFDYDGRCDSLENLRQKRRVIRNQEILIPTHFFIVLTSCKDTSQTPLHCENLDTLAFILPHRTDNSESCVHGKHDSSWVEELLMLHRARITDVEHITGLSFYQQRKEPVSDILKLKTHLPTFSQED
Briefly: ENPP1 Enzyme Assay with cGAMP Substrate (AMP-Glo). As to conditions: human recombinant ENPP1 3 ng/reaction, cGAMP 5 μM, 37° C. 90 minutes, average of two or more tests; read-out: Enzymatic activity IC50. Format: biochemical. How it is done: ENPP1 hydrolyzes nucleotides or nucleotide derivatives to produce nucleoside-5′-monophosphate and pyrophosphate. In addition, ENPP1 hydrolyzes 2′,3′-cGAMP to produce 5′-adenosine monophosphate (AMP) and 5′-guanosine monophosphate (GMP). AMP produced from the reaction is measured using the AMP-Glo® kit (Promega). The AMP-Glo® kit contains two reagents. The first reagent terminates the AMP-producing enzymatic reaction, removes ATP and converts the produced AMP into ADP. The second reagent converts ADP to ATP which is used to generate luminescence in the luciferase reaction. The amount of luminescence measured is proportional to the amount of AMP produced by ENPP1.
The final reaction mixture contains 50 mM Tris (pH 8.5) buffer, 250 mM NaCl, 0.5 mM CaCl2), 1 μM ZnCl2, 5% glycerol and 1% DMSO. Serially diluted ENPP1 inhibitors (typically in the range of 10 μM to 0.5 nM) were pre-stored with human recombinant ENPP1 enzymes (R & D systems) at 3 ng/reaction and room temperature (RT) for 5 to 10 minutes. The reaction was initiated by addition of cGAMP (at a final concentration of 5 μM) and reacted at 37° C. for 90 minutes. At the end of the reaction, 10 μl of the AMP-Glo first reagent was added to stop the reaction and the result was stored at room temperature for 1 hour. After storage, 20 μl of an AMP detection solution (a mixture of AMP-Glo II reagent and Kinase-Glo at a ratio of 1:100) was added and stored at room temperature for 1 hour. Luminescence signals were measured using a Victor® plate reader (Perkin Elmer). The maximal activity control (containing enzymes and substrates in the presence of 1% DMSO; MAX) and the minimal activity control (containing substrates and 1% DMSO; MIN) were evaluated simultaneously. In each experiment, serially diluted reference ENPP1 inhibitors were tested as well. IC50, indicating % residual activity versus compound concentration was determined by fitting inhibition curves using the 3-parameter analysis of GraphPad Prism® software. Serially diluted samples of one compound were tested two or more times and an average IC50 of each compound was calculated.
In the case of `NCc1cccc(Nc2ccnc3[nH]c(=O)ccc23)c1` [Example 77, 5-((3-aminomethyl)phenyl)amino)-1,8-naphthyridin-2(1H)-one dihydrochloride], the IC50 is < 1000 nM.
The result for `NCc1cc(Nc2ccnc3[nH]c(=O)ccc23)ccc1F` [Example 78, 5-((3-aminomethyl)-4-fluorophenyl)amino)-1,8-naphthyridin-2(1H)-one dihydrochloride] reads < 1000 nM; that for `Nc1ccc(Nc2ccnc3[nH]c(=O)ccc23)cc1` [Example 81, 5-((4-aminophenyl)amino)-1,8-naphthyridin-2(1H)-one dihydrochloride], < 1000 nM; that for `NCc1ccc(Nc2ccnc3[nH]c(=O)ccc23)cc1` [Example 82, 5-((4-(aminomethyl)phenyl)amino)-1,8-naphthyridin-2(1H)-one dihydrochloride], < 1000 nM.
With `O=c1ccc2c(Nc3ccc4c(c3)CNC4)ccnc2[nH]1` [Example 84, dihydrochloride], the IC50 is < 1000 nM.
The figure for `O=c1ccc2c(Nc3ccc4c(c3)CCNC4)ccnc2[nH]1` [Example 85, 5-((1,2,3,4-tetrahydroisoquinolin-6-yl)amino)-1,8-naphthyridin-2(1H)-one dihydrochloride] is < 1000 nM.
For the compound `O=c1ccc2c(Nc3cc4c(cc3F)CNCC4)ccnc2[nH]1` [Example 86, 5-((7-fluoro-1,2,3,4-tetrahydroisoquinolin-6-yl)amino)-1,8-naphthyridin-2(1H)-one dihydrochloride], the IC50 was in the range of 1000 to 10000 nM.
The figure for `O=c1ccc2c(Nc3ccc4c(c3)CNCCC4)ccnc2[nH]1` [Example 87, 5-((2,3,4,5-tetrahydro-1H-benzo[c]azepin-8-yl)amino)-1,8-naphthyridin-2(1H)-one dihydrochloride] is > 10000 nM; for `NS(=O)(=O)Nc1cccc(Nc2ccnc3[nH]c(=O)ccc23)c1` [Example 88, N-(3-((7-oxo-7,8-dihydro-1,8-naphthyridin-4-yl)amino)phenyl)sulfamide dihydrochloride] it is < 1000 nM.
Consider `NS(=O)(=O)NCc1cccc(Nc2ccnc3[nH]c(=O)ccc23)c1` [Example 89, N-(3-((7-oxo-7,8-dihydro-1,8-naphthyridin-4-yl)amino)benzyl)sulfamide dihydrochloride], for which the IC50 was < 1000 nM.
Consider `NS(=O)(=O)NCc1cc(Nc2ccnc3[nH]c(=O)ccc23)ccc1F` [Example 90, N-(2-fluoro-5((7-oxo-7,8-dihydro-1,8-naphthyridin-4-yl)amino)benzyl)sulfamide dihydrochloride], for which the IC50 is < 1000 nM.
Regarding `NS(=O)(=O)NCc1ccc(F)c(Nc2ccnc3[nH]c(=O)ccc23)c1` [Example 91, N-(4-fluoro-3-((7-oxo-7,8-dihydro-1,8-naphthyridin-4-yl)amino)benzyl)sulfamide dihydrochloride], the IC50 is < 1000 nM.
On to `NS(=O)(=O)NCCc1cccc(Nc2ccnc3[nH]c(=O)ccc23)c1` [Example 92, N-(3-((7-oxo-7,8-dihydro-1,8-naphthyridin-4-yl)amino)phenethyl)sulfamide dihydrochloride], for which the IC50 is < 1000 nM.
The result for `NS(=O)(=O)NCCc1ccc(F)c(Nc2ccnc3[nH]c(=O)ccc23)c1` [Example 95, N-(4-fluoro-3-((7-oxo-7,8-dihydro-1,8-naphthyridin-4-yl)amino)phenethyl)sulfamide dihydrochloride] reads < 1000 nM.
Consider `NS(=O)(=O)NCc1ccc(Nc2ccnc3[nH]c(=O)ccc23)cc1` [Example 98, N-(4-((7-oxo-7,8-dihydro-1,8-naphthyridin-4-yl)amino)benzyl)sulfamide dihydrochloride], for which the IC50 was 1000 to 10000 nM.
The result for `NS(=O)(=O)N(Cc1ccc(Nc2ccnc3[nH]c(=O)ccc23)cc1)C1CC1` [Example 99, N-cyclopropyl-N-(4-((7-oxo-7,8-dihydro-1,8-naphthyridin-4-yl)amino)benzyl)sulfamide dihydrochloride] reads 1000 to 10000 nM.
